# Laboratory results taken from patent US20240300980A1, “HETEROCYCLIC COMPOUNDS AS KRAS INHIBITOR, AND PREPARATION THEREFOR AND USE THEREOF IN TREATMENT” (SHANGHAI KECHOW PHARMA, INC., priority 2021, published 2024).
# Tested on: AGS cells (KRAS^G12D)
# Assay: Detection of cell proliferation in vitro by MTT/MTS method (cell activity experiment)
# Format: cell-based
# Conditions: AGS cells; MTT/MTS; 3 days of drug treatment; read-out: AGS IC50
# Method: The above cells were cultured in a complete medium containing 10% fetal bovine serum, 100 IU/mL penicillin and 100 jag/mL streptomycin, in the aseptic incubator with 95% relative humidity and 5% CO2 concentration.
# 2. Reagents: F12K, D-PBS, FBS, Penicillin Streptomycin, Tryple, MTT (5 mg/mL)
# Appropriate amount of compound powder was weighed in a 1.5 mL centrifuge tube, then the corresponding volume of dimethyl sulfoxide (DMSO) was added to form a 20 mM reserve solution. The solution was packed separately and stored in a refrigerator at −20° C. away from light.
# The cells were inoculated in a cell culture bottle, added an appropriate amount of complete medium, and cultured in a sterile incubator. When the degree of cell confluence reached more than 80%, subculture was carried out.
# The adherent cells in logarithmic growth phase were digested by trypsin or the suspension cells were collected by centrifugation and counted. 90 μL cell suspension was inoculated into 96-well plate according to the cell inoculation density of 1000 cells per well, and 10 μL of 10-fold final concentration compound diluted by culture medium was added 24 hours later. Compared with the hole with the same volume of 5% DMSO as control, the final concentration of DMSO was 0.5%. After 3 days of drug treatment, the cell viability was detected by MTT. The specific methods are as follows: 10 μL MTT per well was added into the incubator for 4 hours, the supernatant was discarded and 150 μL DMSO was added to dissolve the crystal methylazan, and the absorbance of 490 nm was detected by enzyme labeling instrument, or 10 μL MITS per well was added to the incubator for 4 hours, and […] absorbance was detected directly by enzyme labeling instrument. GraphPad Prism 6 software makes dose-effect curve and calculates IC50.
row,Structure (SMILES),IC50 [µM]
1,"C#Cc1c(F)ccc2cc(O)cc(-c3ccc4c(N5C[C@H]6CC[C@@H](C5)[C@@H]6S(=O)(=O)C(F)(F)F)nc(OC[C@@]56CCCN5C[C@H](F)C6)nc4c3F)c12 [Example 132, 5-ethynyl-6-fluoro-4-(8-fluoro-2-(((2R,7aS)-2-fluorotetrahydro-1H-pyrrolizin-7a(5H)-yl)methoxy)-4-((1R,5S, 8R)-8-((trifluoromethyl)sulfonyl)-3-azabicyclo [3.2.1]octan-3-yl)quinazolin-7-yl) naphthalen-2-ol]",> 2.5

# Same assay, conditions: Homo sapiens, AGS, 72 h, AGS cells; MTT/MTS; 3 days of drug treatment; read-out: AGS IC50
row,Structure (SMILES),IC50 [µM]
1,"CCc1c(F)ccc2cc(O)cc(-c3ccc4c(N5C[C@H]6CC[C@@H](C5)S6)nc(OC[C@@]56CCCN5C[C@H](F)C6)nc4c3F)c12 [Example 161, 4-(4-((1R,5S)-8-thia-3-azabicyclo[3.2.1]octan-3-yl)-8-fluoro-2-(((2R,7aS)-2-fluorotetrahydro-1H-pyrrolizin-7a(5H)-yl)methoxy)quinazolin-7-yl)-5-ethyl-6-fluoronaphthalen-2-ol]",0.236
2,"CCC1COc2cc(O)cc(-c3ncc4c(N5C[C@H]6CC[C@@H](C5)N6)nc(OC[C@@]56CCCN5C[C@H](F)C6)nc4c3F)c21 (stereo partly drawn) [Example 243, 4-(4-((1R,5S)-3,8-diazabicyclo[3.2.1]octan-3-yl)-8-fluoro-2-(((2R,7aS)-2-fluorotetrahydro-1H-pyrrolizin-7a(5H)-yl)methoxy)pyrido[4,3-d]pyrimidin-7-yl)-3-ethyl-2,3-dihydrobenzofuran-6-ol]",0.018
3,"C#Cc1cccc2cc(O)cc(-c3ncc4c(N5C[C@H]6CC[C@@H](C5)C6(F)F)nc(OC[C@@]56CCCN5C[C@H](F)C6)nc4c3F)c12 [Example 32, 4-(4-((1R,5S)-8,8-difluoro-3-azabicyclo [3.2.1]octan-3-yl)-8-fluoro-2-(((2R,7aS)-2-fluorotetrahydro-1H-pyrrolizin-7a(5H)-yl)methoxy)pyrido[4,3-d]pyrimidin-7-yl)-5-ethynylnaphthalen-2-ol]",> 2.5
4,"C#Cc1c(F)ccc2cc(O)cc(-c3cc4nc(OC[C@@]56CCCN5C[C@H](F)C6)nc(N5C[C@H]6CC[C@@H](C5)N6)c4c4ncn(C)c34)c12 [Example 400, 4-(9-((1R,5S)-3,8-diazabicyclo[3.2.1]octan-3-yl)-7-(((2R,7aS)-2-fluorotetrahydro-1H-pyrrolizin-7a(5H)-yl)methoxy)-3-methyl-3H-imidazo[4,5-f]quinazolin-4-yl)-5-ethynyl-6-fluoronaphthalen-2-ol]",> 2.5
5,"Oc1cc(-c2ncc3c(N4C[C@H]5CC[C@@H](C4)N5)nc(OC[C@@]45CCCN4C[C@H](F)C5)nc3c2F)c2c(c1)C1CC1C2 (stereo partly drawn) [Example 245, 5-(4-((1R,5S)-3,8-diazabicyclo[3.2.1]octan-3-yl)-8-fluoro-2-(((2R,7aS)-2-fluorotetrahydro-1H-pyrrolizin-7a(5H)-yl)methoxy)pyrido[4,3-d]pyrimidin-7-yl)-1,1a,6,6a-tetrahydrocyclopropa[a]inden-3-ol]",0.025
6,"COC1CCCc2cc(O)cc(-c3ncc4c(N5C[C@H]6CC[C@@H](C5)N6)nc(OC[C@@]56CCCN5C[C@H](F)C6)nc4c3F)c21 (stereo partly drawn) [Example 270, 4-(4-((1R,5S)-3,8-diazabicyclo[3.2.1]octan-3-yl)-8-fluoro-2-(((2R,7aS)-2-fluorotetrahydro-1H-pyrrolizin-7a(5H)-yl)methoxy)pyrido[4,3-d]pyrimidin-7-yl)-5-methoxy-5,6,7,8-tetrahydronaphthalen-2-ol]",0.02
7,"N#Cc1c(OC[C@@]23CCCN2C[C@H](F)C3)nc2c(F)c(-c3cc(O)cc4ccc(F)c(F)c34)ncc2c1N1C[C@H]2CC[C@@H](C1)N2 [Example 193, 4-((1R,5S)-3,8-diazabicyclo[3.2.1]octan-3-yl)-7-(7,8-difluoro-3-hydroxynaphthalen-1-yl)-8-fluoro-2-(((2R,7aS)-2-fluorotetrahydro-1H-pyrrolizin-7a(5H)-yl)methoxy)-1,6-naphthyridine-3-carbonitrile]",0.125
8,"C#Cc1c(F)ccc2cc(O)cc(-c3ncc4c(N5CC6CCC(C5)[S+]6[O-])nc(OC[C@@]56CCCN5C[C@H](F)C6)nc4c3F)c12 (stereo partly drawn) [Example 22, (1R,5S,8R)-3-(7-(8-ethynyl-7-fluoro-3-hydroxynaphthalen-1-yl)-8-fluoro-2-(((2R,7aS)-2-fluorotetrahydro-1H-pyrrolizin-7a(5H)-yl)methoxy)pyrido [4,3-d]pyrimidin-4-yl)-8-thia-3-azabicyclo [3.2.1]octane 8-oxide]",3.95
9,"O=C1CCc2cc(O)cc(-c3ncc4c(N5C[C@H]6CC[C@@H](C5)N6)nc(OC[C@@]56CCCN5C[C@H](F)C6)nc4c3F)c21 [Example 250, 7-(4-((1R,5S)-3,8-diazabicyclo[3.2.1]octan-3-yl)-8-fluoro-2-(((2R,7aS)-2-fluorotetrahydro-1H-pyrrolizin-7a(5H)-yl)methoxy)pyrido[4,3-d]pyrimidin-7-yl)-5-hydroxy-2,3-dihydro-1H-inden-1-one]",> 2.5
10,"C#Cc1c(F)ccc2cc(O)cc(-c3ccc4c(N5CC6CCC(N6)C5=O)nc(OC[C@@]56CCCN5C[C@H](F)C6)nc4c3F)c12 (stereo partly drawn) [Example 214, 3-(7-(8-ethynyl-7-fluoro-3-hydroxynaphthalen-1-yl)-8-fluoro-2-(((2R,7aS)-2-fluorotetrahydro-1H-pyrrolizin-7a(5H)-yl)methoxy)quinazolin-4-yl)-3,8-diazabicyclo[3.2.1]octan-2-one]",> 10
11,"C#Cc1c(F)ccc2cc(O)cc(-c3ccc4c(N5CCC(C#N)CC5)nc(OC[C@@]56CCCN5C[C@H](F)C6)nc4c3F)c12 [Example 133, 1-(7-(8-ethynyl-7-fluoro-3-hydroxynaphthalen-1-yl)-8-fluoro-2-(((2R, 7aS)-2-fluorotetrahydro-1H-pyrrolizin-7a(5H)-yl)methoxy)quinazolin-4-yl)piperidine-4-carbonitrile]",> 2.5
12,"CCc1c(F)ccc2cc(O)cc(-c3ncc4c(N5C[C@H]6CC[C@@H](C5)C6(F)F)nc(OC[C@@]56CCCN5C[C@H](F)C6)nc4c3F)c12 [Example 31, 4-(4-((1R,5S)-8,8-difluoro-3-azabicyclo [3.2.1]octan-3-yl)-8-fluoro-2-(((2R,7aS)-2-fluorotetrahydro-1H-pyrrolizin-7a(5H)-yl)methoxy)pyrido[4,3-d]pyrimidin-7-yl)-5-ethyl-6-fluoronaphthalen-2-ol]",> 2.5
13,"C#Cc1c(F)ccc2cc(O)cc(-c3ncc4c(C5CCN(C(=O)CO)C5)nc(OC[C@@]56CCCN5C[C@H](F)C6)nc4c3F)c12 (stereo partly drawn) [Example 84, 1-(3-(7-(8-ethynyl-7-fluoro-3-hydroxynaphthalen-1-yl)-8-fluoro-2-(((2R,7aS)-2-fluorotetrahydro-1H-pyrrolizin-7a(5H)-yl)methoxy)pyrido[4,3-d]pyrimidin-4-yl)pyrrolidin-1-yl)-2-hydroxyethan-1-one]",> 10
14,"CCc1c(F)ccc2cc(O)cc(-c3ncc4c(N5C[C@H]6CC[C@@H](C5)S6)nc(OC[C@@]56CCCN5C[C@H](F)C6)nc4c3F)c12 [Example 24, 4-(4-((1R,5S)-8-thia-3-azabicyclo[3.2.1]octan-3-yl)-8-fluoro-2-(((2R, 7aS)-2-fluorotetrahydro-1H-pyrrolizin-7a(5H)-yl)methoxy)pyrido[4,3-d]pyrimidin-7-yl)-5-ethyl-6-fluoronaphthalen-2-ol]",0.28
15,"Oc1cc(C#Cc2ccc3c(N4C[C@H]5CC[C@@H](C4)N5)nc(OC[C@@]45CCCN4C[C@H](F)C5)nc3c2F)c2ccccc2c1 [Example 363, 4-((4-((1R,5S)-3,8-diazabicyclo[3.2.1]octan-3-yl)-8-fluoro-2-(((2R,7aS)-2-fluorotetrahydro-1H-pyrrolizin-7a(5H)-yl)methoxy)quinazolin-7-yl)ethynyl)naphthalen-2-ol]",0.753
16,"CCc1coc2cc(O)cc(-c3ccc4c(N5C[C@H]6CC[C@@H](C5)N6)nc(OC[C@@]56CCCN5C[C@H](F)C6)nc4c3F)c12 [Example 293, 4-(4-((1R,5S)-3,8-diazabicyclo[3.2.1]octan-3-yl)-8-fluoro-2-(((2R,7aS)-2-fluorotetrahydro-1H-pyrrolizin-7a(5H)-yl)methoxy)quinazolin-7-yl)-3-ethylbenzofuran-6-ol]",0.121
17,"Oc1cc2c(c(-c3c4c(c5c(N6C[C@H]7CC[C@@H](C6)N7)nc(OC[C@@]67CCCN6C[C@H](F)C7)nc5c3F)OCO4)c1)CCCC2 [Example 390, 4-(9-((1R,5S)-3,8-diazabicyclo[3.2.1]octan-3-yl)-5-fluoro-7-(((2R,7aS)-2-fluorotetrahydro-1H-pyrrolizin-7a(5H)-yl)methoxy)-[1,3]dioxolo[4,5-f]quinazolin-4-yl)-5,6,7,8-tetrahydronaphthalen-2-ol]",0.15
18,"Nc1cc2ccccc2c(-c2ncc3c(N4C[C@H]5CC[C@@H](C4)N5)nc(OCC4(CN5CCCC5)CC4)nc3c2F)n1 [Example 7, 1-(4-((1R,5S)-3,8-diazabicyclo[3.2.1]octan-3-yl)-8-fluoro-2-((1-(pyrrolidin-1-ylmethyl)cyclopropyl)methoxy)pyrido[4,3-d]pyrimidin-7-yl)isoquinolin-3-amine]",2.58
